Measured values from patent US5795899A, “Soluble salts of 4-amino-2-(4,4-dimethylimidazolidin-2-on-1-yl) pyrimidine-5-carboxylic acid N-methyl-N-(3-trifluoromethylphenyl)-amide, a process for the preparation thereof, the use thereof as pharmaceuticals and starting materials” (Hoechst Aktiengesellschaft, priority 1992, dated 1998).

Experiments:
[1] = system: serum lipoproteins; test: Effect on serum lipoproteins of normolipemic male rats in a subchronic test; format: in vivo, male Wistar rats, HOE: WISKf (SPF 71) strain; conditions: for % change compared with control, protein LDL / % change compared with control, total cholesterol LDL / % change compared with control, total cholesterol VLDL / % change compared with control, triglycerides VLDL: oral, 7 days
Method: 4.1 Effect on serum lipoproteins of normolipemic male rats in a subchronic test
Groups of in each case 10 male rats of the HOE: WISKf (SPF 71) strain with an initial weight above 180 g received once a day (in the morning) the test product or the comparison product in 1% aqueous ®Tylose MH 300 solution by stomach tube (0.5 ml/100 g of body weight); the control group in each case received only the vehicle. The last (7th) administration took place 24 hours before removal of blood and sacrifice. There was free access to food and water during the test. The food was withdrawn 24 hours before the removal of blood.
The serum from all 10 rats in a group was pooled for the analysis of the serum lipoproteins. The serum lipoproteins were separated with a preparative ultracentrifuge (KONTRON TGA 65, Rotor BECKMAN 50.4 Ti).
The following conditions specified by Koga, S., Horwitz, D. L., and Scanu, A. M., Journal of Lipid Research 10, 577 (1969) and Havel, R. J., Eder, H. A., and Bragdon, H. H., J. Clin. Invest. 34, 1345 (1955) were used to separate VLDL, LDL and HDL:
Test kits from BOEHRINGER/Mannheim were used for the enzymatic determination of cholesterol and triglycerides in the separated lipoprotein fractions (compare Siedel, J., Schlumberger, H., Klose, S., Ziegenhorn, J. and Wahlefeld, A. W., J. Clin. Chem. Clin. Biochem. 19, 838 (1981) and Wahlefeld, A. W., in: H. O. Bergmeier: Methoden der enzymatischen Analyse (Methods of Enzymatic Analysis), 2nd edition, Volume II, Verlag Chemie 1974, page 1878). The proteins were determined by the method of Lowry (Lowry, O. H., Roseborough, N. J., Farr, A. L. and R. J. Randell, J. Biol. Chem. 193, 265 (1951)).
Clofibrate was used as comparison product.

[2] = system: hypercholesterolemia; test: Effect on experimental hypercholesterolemia in male rats; format: in vivo, male Wistar rats, HOE: WISKf (SPF 71) strain; conditions: oral, 7 days; for Total cholesterol (x): mean x
Method: Groups of in each case 10 male rats of the HOE: WISKf (SPF 71) strain with a weight of about 200 g received each day in the morning a cocktail which contained the substances required to generate a combined dietetic/hormonal hypercholesterolemia, and in each case the product to be tested for the inhibition of hypercholesterolemia, in appropriate dosage. The cocktail was composed of a mixture of 100 g of cholesterol, 30 g of propylthiouracil and 100 g of cholic acid in 1 l of peanut oil. 1 ml of this/100 g of body weight was administered by gavage. The products to be tested were suspended in this cocktail in a concentration such that it contained the daily dose indicated in Table 4 on administration of the amount mentioned above. The other procedure for the treatment and the analysis of the individual parameters were carried out as indicated under 4.1.
Clofibrate was used as comparison product. The results are compiled in Table 4, wherein a) indicates the absolute values and b) indicates the percentage changes.

[3] = system: carbohydrate-induced hypertriglyceridemia; test: Inhibition of carbohydrate-induced hypertriglyceridemia; format: in vivo, male Sprague-Dawley rats; conditions: oral, 4 days; for Triglycerides in serum (x): mean x
Method: Groups of in each case 10 male Sprague-Dawley rats (supplied by the breeder Mollegard with a weight of 250-280 g) received on each of 4 consecutive days one administration of the compound dissolved in PEG 400 by gavage. In addition, after the 3rd administration and 8 and 24 hours later they received 2.5 g of fructose/kg, likewise by gavage. Moreover, after the 3rd administration of product, 50% strength fructose solution was offered to them as drinking water ad libitum, and the food was withdrawn. Retroorbital removal of blood, from which the serum was obtained for the triglyceride determination and VLDL preparation in the ultracentrifuge (flotation at d=1.006), took place 3 hours after the last product/fructose administration. The food received by the animals from 1 week before the 1st administration and up to the 3rd administration was a diet with 40% casein in the feed meal.
The animals develop, as a result of this treatment, a hypertriglyceridemia which approximately corresponds to Fredrickson phenotype IV in humans. The serum triglycerides of the normal animals increased from 0.54 to 1.1 mmol/l, and the VLDL triglycerides from 0.67 to 1.81.

[4] = Side effects like those observed with the statins; conditions: general statement
[5] = system: tumor cells (L 1210, A 549, HT 29); test: Cell proliferation inhibition (MTT assay), overall statement; format: cell-based, mouse and human
Method: The reduced inhibitory effect on cell proliferation was tested on exponentially growing animal (mouse leukemia cells, L 1210) and human (bronchial carcinoma cells, A 549; colon carcinoma cells, HT 29) tumor cells. This entailed the tumor cells being incubated in RPMI standard medium with various concentrations of the test substances for 72 hours. Cell incubations only in fresh medium served as control. Incubations were set up in quadruplet. […] After incubation for a further 7 to 24 hours, the cell supernatant was carefully removed and the formazan dye in the cells was solubilized by adding DMSO and measured quantitatively by photometry at 492 nm. The ratio of the extinction of the substance incubations to the control incubation was quantified. The coefficient of variation in each incubation series was less than 15%. The following Table 6 indicates the IC50 values (IC50 [μg/ml] is the concentration of the test substance per ml which is necessary for 50% inhibition) from these investigations.

[6] = physchem; conditions: water

Structure (SMILES): CN(C(=O)c1cnc(N2CC(C)(C)NC2=O)nc1N)c1cccc(C(F)(F)F)c1 [Compound I, 4-amino-2-(4,4-dimethylimidazolidin-2-on-1-yl)pyrimidine-5-carboxylic acid N-methyl-N-(3-trifluoromethylphenyl)amide]
- % change compared with control, protein LDL ([1]; 1 mg/kg/day): -15%
- % change compared with control, total cholesterol LDL ([1]; 1 mg/kg/day): -17%
- % change compared with control, total cholesterol VLDL ([1]; 1 mg/kg/day): +4%
- % change compared with control, triglycerides VLDL ([1]; 1 mg/kg/day): +8%
- % change compared with control, protein LDL ([1]; 3 mg/kg/day): -25%
- % change compared with control, total cholesterol LDL ([1]; 3 mg/kg/day): -32%
- % change compared with control, total cholesterol VLDL ([1]; 3 mg/kg/day): -24%
- % change compared with control, triglycerides VLDL ([1]; 3 mg/kg/day): -25%
- % change compared with control, protein LDL ([1]; 10 mg/kg/day): -41%
- % change compared with control, total cholesterol LDL ([1]; 10 mg/kg/day): -49%
- % change compared with control, total cholesterol VLDL ([1]; 10 mg/kg/day): -52%
- % change compared with control, triglycerides VLDL ([1]; 10 mg/kg/day): -62%
- % change compared with control, protein LDL ([1]; 30 mg/kg/day): -52%
- % change compared with control, total cholesterol LDL ([1]; 30 mg/kg/day): -64%
- % change compared with control, total cholesterol VLDL ([1]; 30 mg/kg/day): -59%
- % change compared with control, triglycerides VLDL ([1]; 30 mg/kg/day): -79%
- HDL levels (in words) ([1]; general statement): unaffected
- % change compared with control, protein "HDL" d > 1.04 ([2]; 10 mg/kg/day): -7%
- % change compared with control, protein LDL ([2]; 10 mg/kg/day): -16%
- % change compared with control, protein VLDL ([2]; 10 mg/kg/day): -8%
- % change compared with control, total cholesterol "HDL" d > 1.04 ([2]; 10 mg/kg/day): -14%
- % change compared with control, total cholesterol LDL ([2]; 10 mg/kg/day): -13%
- % change compared with control, total cholesterol VLDL ([2]; 10 mg/kg/day): -34%
- % change compared with control, triglycerides VLDL ([2]; 10 mg/kg/day): -54%
- Lipoprotein fraction protein "HDL" ([2]; 10 mg/kg/day): 5004
- Lipoprotein fraction protein LDL ([2]; 10 mg/kg/day): 1040
- Lipoprotein fraction protein VLDL ([2]; 10 mg/kg/day): 1981
- Lipoprotein fraction total cholesterol "HDL" ([2]; 10 mg/kg/day): 508
- Lipoprotein fraction total cholesterol LDL ([2]; 10 mg/kg/day): 4099
- Lipoprotein fraction total cholesterol VLDL ([2]; 10 mg/kg/day): 3088
- Lipoprotein fraction triglycerides VLDL ([2]; 10 mg/kg/day): 677
- Serum % change compared with control at the end of treatment, total cholesterol ([2]; 10 mg/kg/day): -24%
- Serum % change compared with control at the end of treatment, triglycerides ([2]; 10 mg/kg/day): -16%
- Triglycerides, pool ([2]; 10 mg/kg/day): 2.45 mmol/L
- Total cholesterol (x) ([2]; 10 mg/kg/day): 556 mg/dL
- % change compared with control, protein "HDL" d > 1.04 ([2]; 30 mg/kg/day): -24%
- % change compared with control, protein LDL ([2]; 30 mg/kg/day): -68%
- % change compared with control, protein VLDL ([2]; 30 mg/kg/day): -49%
- % change compared with control, total cholesterol "HDL" d > 1.04 ([2]; 30 mg/kg/day): +79%
- % change compared with control, total cholesterol LDL ([2]; 30 mg/kg/day): -92%
- % change compared with control, total cholesterol VLDL ([2]; 30 mg/kg/day): -97%
- % change compared with control, triglycerides VLDL ([2]; 30 mg/kg/day): -71%
- Lipoprotein fraction protein "HDL" ([2]; 30 mg/kg/day): 4090
- Lipoprotein fraction protein LDL ([2]; 30 mg/kg/day): 391
- Lipoprotein fraction protein VLDL ([2]; 30 mg/kg/day): 1105
- Lipoprotein fraction total cholesterol "HDL" ([2]; 30 mg/kg/day): 1056
- Lipoprotein fraction total cholesterol LDL ([2]; 30 mg/kg/day): 369
- Lipoprotein fraction total cholesterol VLDL ([2]; 30 mg/kg/day): 126
- Lipoprotein fraction triglycerides VLDL ([2]; 30 mg/kg/day): 425
- Serum % change compared with control at the end of treatment, total cholesterol ([2]; 30 mg/kg/day): -81%
- Serum % change compared with control at the end of treatment, triglycerides ([2]; 30 mg/kg/day): -62%
- Triglycerides, pool ([2]; 30 mg/kg/day): 1.10 mmol/L
- Total cholesterol (x) ([2]; 30 mg/kg/day): 137 mg/dL
- Triglycerides in serum, % change from fructose control ([3]; 1 mg/kg/day): -36%
- Triglycerides in the VDVL fraction, % change from fructose control ([3]; 1 mg/kg/day): -45%
- Triglycerides in the VDVL fraction, pool n = 10 ([3]; 1 mg/kg/day): 1.00 mmol/L
- Triglycerides in serum (x) ([3]; 1 mg/kg/day): 0.71 mmol/L
- Triglycerides in serum, % change from fructose control ([3]; 3 mg/kg/day): -51%
- Triglycerides in the VDVL fraction, % change from fructose control ([3]; 3 mg/kg/day): -62%
- Triglycerides in the VDVL fraction, pool n = 10 ([3]; 3 mg/kg/day): 0.69 mmol/L
- Triglycerides in serum (x) ([3]; 3 mg/kg/day): 0.54 mmol/L
- Triglycerides in serum, % change from fructose control ([3]; 10 mg/kg/day): -68%
- Triglycerides in the VDVL fraction, % change from fructose control ([3]; 10 mg/kg/day): -80%
- Triglycerides in the VDVL fraction, pool n = 10 ([3]; 10 mg/kg/day): 0.37 mmol/L
- Triglycerides in serum (x) ([3]; 10 mg/kg/day): 0.35 mmol/L
- Triglycerides in serum, % change from fructose control ([3]; 30 mg/kg/day): -74%
- Triglycerides in the VDVL fraction, % change from fructose control ([3]; 30 mg/kg/day): -90%
- Triglycerides in the VDVL fraction, pool n = 10 ([3]; 30 mg/kg/day): 0.19 mmol/L
- Triglycerides in serum (x) ([3]; 30 mg/kg/day): 0.29 mmol/L
- Side effects of the statin type observed to date [4]: Nor have side effects of this type been observed to date
- Proliferation inhibition compared with imanixil (HOE 402) / its hydrochloride (in words) [5]: distinctly reduced proliferation inhibition
- Solubility in water (in words): exceptionally slightly soluble in water
- 1 part by mass dissolves in . . . parts of H2 O (Table 2, Temp. [°C]: hydrochloride 25.0, nitrate 23.5, p-toluenesulfonate 23.2, hydrogen (R,R)-tartrate 24.6, free base 24.8): 1220 parts of H2 O
- solubility [6]: 800 µg/mL
- solubility ([6]; Solubility in water: molarity, Table 2, free base, 24.8 °C): 2000 µM
